For assay [1], the target named is T1, p53-Y220C DNA-binding domain (DBD) (Homo sapiens, UniProt P04637, M133L/N239Y/N268D/V203A/Y220C).
T1 construct: Stabilized p53-Y220C DBD (residues 94–312) was expressed and purified as previously described; made in house
Nature of the assay: Differential scanning fluorimetry (DSF), stabilization of p53-Y220C DBD. The conditions noted are these: 8 μM stabilized p53-Y220C DBD, 25 mM KPi pH 7.2, 5% DMSO, triplicate; for ΔTm at 125 µM: pH 7.2, compound 125 μM; for DSF ΔTm at 125 μM: compound 125 μM. As for the experimental part: We tested […]083 (1) and analogues 2-6 for their stabilization of the p53-Y220C DNA-binding domain (DBD) using differential scanning fluorimetry (DSF; Table 1). The N-2,2,2-trifluoroethyl substituted carbazoles 4 and 6 increased stability of the p53-Y220C DBD by 1.2 K at a compound concentration of 125 μM, showing a clear improvement over their N-ethyl substituted counterparts […]083 (1) and 5 (ΔTm = 0.8 K and ΔTm = 0.6 K, respectively). […] DSF was performed as described.[26] Briefly, melting temperatures (Tm) were determined using 8 μM protein (stabilized p53-Y220C DBD) and 10 × SYPRO orange (Life Technologies) in a 25 mM KPi (pH 7.2), 150 mM NaCl, and 1 mM TCEP assay buffer at a final DMSO concentration of 5% (v/v). ΔTm values were calculated as ΔTm= Tm (protein + compound) - Tm (protein)). All samples were measured in triplicate.
In general terms: Differential scanning fluorimetry follows unfolding on heating by fluorescence.

In assay [2] the target is T2, p53-Y220C DBD (Homo sapiens, UniProt P04637, M133L/N239Y/N268D/V203A/Y220C).
T2 construct: Stabilized p53-Y220C DBD (residues 94–312) was expressed and purified as previously described; made in house
Nature of the assay: Isothermal titration calorimetry (ITC). Type of assay: binding. The settings on record: for Kd: 50 μM protein, 25 mM KPi pH 7.2, 150 mM NaCl, 1 mM TCEP, 5% DMSO; for increase in affinity (ITC KD) compared to the nonfluorinated parent compounds (1 and 5): 4 vs 1, 6 vs 5; for improvement of free energy of binding compared with parent compounds: at 293 K, vs PhiKan083 (1) and 5. As for the experimental part:
We tested PhiKan083 (1) and analogues 2–6 for their stabilization of the p53-Y220C DNA-binding domain (DBD) using differential scanning fluorimetry (DSF; Table 1). The N-2,2,2-trifluoroethyl substituted carbazoles 4 and 6 increased stability of the p53-Y220C DBD by 1.2 K at a compound concentration of 125 μM, showing a clear improvement over their N-ethyl substituted counterparts PhiKan083 (1) and 5 (ΔTm = 0.8 K and ΔTm = 0.6 K, respectively).
ITC experiments were conducted as described.[26] Samples for the cell unit contained 50 μM protein in a 25 mM KPi (pH 7.2), 150 mM NaCl, 1 mM TCEP, and 5% (v/v) DMSO assay buffer. The syringe contained 2–5 mM compound in the same assay buffer.
On the technique in general: Isothermal titration calorimetry measures the heat released or taken up as one component is titrated into another.

Assay [3] concerns the target T2, p53-Y220C DBD. On the set-up: method as in Boeckler et al. (24). The settings on record: data taken from the literature; ref Boeckler et al. (24); read-out: ITC KD; cited from earlier work.

“And” between values parts separate entries of the source, which are not always exact repeats. Identical values can stand only once. Like-named read-outs stand apart in the source and are kept apart here.

For orientation: ΔTm means the shift of the melting midpoint relative to a reference. As a reminder, the Kd is a measure of binding affinity in units of concentration. In the case of `CN(C)Cc1ccc2c(c1)c1ccccc1n2CC(F)(F)F` [Compound 6, 1-(9-(2,2,2-Trifluoroethyl)-9H-carbazol-3-yl)-N,N-dimethylmethanamine], the ΔTm at 125 µM in assay [1] amounted to 1.2 °C. Also, in assay [2], the “ligand efficiency (LE)” value is listed as 0.3 kcal mol^–1 atom^–1; the dissociation constant (Kd) was 37.2 µM and 37 µM; the “increase in affinity (ITC KD) compared to the nonfluorinated parent compounds (1 and 5)” value was 5 fold; the “improvement of free energy of binding compared with parent compounds” value is “approximately −0.9 kcal/mol”.
Turning to `CCn1c2ccccc2c2cc(CNC)ccc21` [Compound 1, 1-(9-ethyl-9H-carbazole-3-yl)-N-methylmethanamine], the Kd in assay [3] was 124 µM.
Take `CCn1c2ccccc2c2cc(CN(C)C)ccc21` [Compound 5, 1-(9-Ethyl-9H-carbazol-3-yl)-N,N-dimethylmethanamine]: in assay [1], the ΔTm at 125 µM was found to be 0.6 °C. The same compound yielded a Kd in assay [2] of 169 µM. The “drop in affinity due to additional methyl group at the amine” value in assay [2] (5 vs 1) is given as 30%.
Take `CNCc1ccc2c(c1)c1ccccc1n2CC(F)F` [Compound 3, 1-(9-(2,2-Difluoroethyl)-9H-carbazol-3-yl)-N-methylmethanamine]: in assay [1], the “DSF ΔTm at 125 μM” value was 0.3 K and the ΔTm at 125 µM is 0.4 °C. This compound showed a Kd in assay [2] of 101 µM.
For `CNCc1ccc2c(c1)c1ccccc1n2CCF` [Compound 2, 1-(9-(2-Fluoroethyl)-9H-carbazol-3-yl)-N-methylmethanamine], in that order: 0.4 K, 0.3 °C and 138 µM.
For `CNCc1ccc2c(c1)c1ccccc1n2CC(F)(F)F` [Compound 4, 1-(9-(2,2,2-Trifluoroethyl)-9H-carbazol-3-yl)-N-methylmethanamine], in assay [1], the shift in melting temperature (ΔTm) at 125 µM was determined as 1.2 °C. Also, in assay [2], the “ligand efficiency (LE)” value is given as 0.3 kcal mol^–1 atom^–1; the Kd was 28.3 µM and 28 µM; the “increase in affinity (ITC KD) compared to the nonfluorinated parent compounds (1 and 5)” value came out at 5 fold; the “improvement of free energy of binding compared with parent compounds” value is “approximately −0.9 kcal/mol”.
